Tested on: HeLa-CASP2−/−CASP3−/−GSDMD−/− (TKO) cells
Assay: Cell death in control HeLa triple knockout cells without active caspase-2
Format: cell-based, human
Description: Specific chemical compounds are powerful tools for dissecting target-related signaling mechanisms in biological contexts ([Beck et al., 2022]; [Zhang et al., 2012]). Prompted by this notion and possibly to identify a compound that could activate the PIDDosome, we designed a cell death-based high-throughput chemical screen in HeLa cells, in which a triple knockout of CASP2, CASP3, and GSDMD were constructed. CASP3 and GSDMD deficiency served as the background to minimize compound-induced nonspecific cytotoxicity and undesired pyroptosis. Using the triple knockout cells as the control, additional expression of exogenous caspase-2 allows the identification of compounds that can specifically activate the caspase-2-BID pathway and trigger apoptosis through caspase-7. […]
Figure 3. […] The ratios of the cell viability between the two groups are calculated with 3 as a cutoff for positive compound hit selection. […] Processing of caspase-2, -3, and -7 was analyzed by immunoblotting. […] ATP-based cell viability in panels (B and D) is expressed as mean ± s.d. from three technical replicates. […]
Drug-related Screening Library (25 × 384-well plate, more than 7,000 compounds) was used for the chemical screen in the TKO HeLa cells rescued with exogenous caspase-2 expression. […] After treatment for 12 h, the cell viability was measured by the ATP assay. […]

SMILES: Cc1ccc2nc(-n3nc(C)c(Cc4ccccc4)c3O)[nH]c2c1 [HUHS015]
- cell death (TKO cells expressing protease-deficient caspase-2 C320A): no cell death
- cell death selectivity, caspase-2-expressing vs control TKO cells (chemical screen, 12 h): robust cell death selectively in caspase-2-expressing but not the control triple knockout cells

Source: publication PMC11637483, “Dissecting caspase-2-mediated cell death: from intrinsic PIDDosome activation to chemical modulation” (Protein & Cell, 2024)
